Active and inactive are the calls of the source. The rule behind the calls is not given here.
Legend:
[1] = test system: CWR22R; experiment: Antiproliferative activity against human 22Rv1 cells assessed as inhibition of cell growth incubated for 48 hrs by MTT assay; format: functional, cell-based; settings: 22Rv1, 48 h
[2] = test system: HCT-116; experiment: Antiproliferative activity against human HCT-116 assessed as inhibition of cell viability incubated for 24 hrs by CCK8 method; format: functional, cell-based
[3] = test system: HCT-116; experiment: Induction of autophagy in human HCT-116 cells transfected with tandem mRFP-GFP-LC3 plasmid assessed as reduction in p62 expression incubated for 24 hrs by Western blot analysis; format: functional, cell-based; settings: dose 0.5-20 µM
[4] = test system: HCT-116; experiment: Induction of apoptosis in human HCT-116 assessed as late apoptotic cells at 2 uM incubated for 24 hrs Annexin V FITC/PI double staining based flow cytometry (reference value: 8.02 %); format: functional
[5] = test system: HCT-116; experiment: Induction of apoptosis in human HCT-116 assessed as early apoptotic cells at 2 uM pretreated with Z-VAD-FMK for 30 mins followed by compound addition and measured after 24 hrs by Annexin V-FITC/PI double staining based flow cytometry (reference value: 0.95%); format: functional
[6] = Toxicity in female BALB/c mouse implanted with mouse CT26 cells assessed as change in heart morphology at 1 to 2 mg/kg administrated once every 3 days for 18 days by H&E staining based analysis; format: organism-based; settings: in vivo, 432 h, dose 1-2 mg/kg, time 18 day
[7] = test system: HCT-116; experiment: Induction of autophagy in human HCT-116 cells transfected with mRFP-GFP-LC3B assessed as autophagolysosome formation by measuring increase in mRFP to GFP fluorescence ratio at 0.5 to 2 uM incubated for 24 hrs by DAPI staining based fluorescence confocal microscopic analysis; format: functional, cell-based; settings: dose 0.5-2 µM
[8] = test system: HCT-116; experiment: Upregulation of autophagy pathway related genes expression in human HCT-116 cells at 1 uM incubated for 24 hrs by heat map analysis; format: functional, cell-based
[9] = test system: HCT-116; experiment: Inhibition of colony formation in ATG7 knockout human HCT-116 cells assessed as reduction in number of colonies at 1 to 4 uM measured after 24 hrs by crystal violet staining based analysis; format: functional, cell-based; settings: dose 1-4 µM

What does the source list for `CCN(CC)CCCNCc1cc2c3ccccc3n(CCCc3ccccc3)c2c(CNCCCN(CC)CC)n1`?
IC50 [1]: 4.08 µM; Activity [2]: Dose-dependent-effect; IC50 ([2]; HCT-116, 24 h): 2.75 µM; Activity [3]: Dose-dependent-effect; Activity [4]: 13.9%; Activity [5]: 2.28%; Activity [6]: Non-toxic; Activity [7]: Active; Activity [8]: Active; inhibition [9]: Active; Insignificant Decrease In Number Of Colonies Observed

— ChEMBL document CHEMBL6096670, “Design, synthesis and biological evaluation of novel β-carbolines as antitumor agents via targeting autophagy in colorectal cancer” (Eur J Med Chem, 2025)
